Measurements published in PubChem BioAssay (NCI).
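Step 1: Grow cells in 96-well plates. Step 2: Expose to compound for 48 hours at 5 concentrations. Step 3: Interpolate endpoints linearly; if unreached, use highest concentration. TGI: total growth inhibition.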

Columns and labels:
Assay in all cases: NCI tumour cell line growth inhibition, 48 h
OVCAR-8 ovarian = system: OVCAR-8 ovarian
COLO 205 colon = system: COLO 205 colon
PC-3 prostate = system: PC-3 prostate
UACC-257 melanoma = system: UACC-257 melanoma
NCI-H23 lung = system: NCI-H23 lung
OVCAR-5 ovarian = system: OVCAR-5 ovarian
K-562 leukemia = system: K-562 leukemia
SK-MEL-5 melanoma = system: SK-MEL-5 melanoma
KM12 colon = system: KM12 colon
DU-145 prostate = system: DU-145 prostate
HCT-15 colon = system: HCT-15 colon
SK-OV-3 ovarian = system: SK-OV-3 ovarian
MDA-MB-231 breast = system: MDA-MB-231 breast
LOX IMVI melanoma = system: LOX IMVI melanoma
TK-10 renal = system: TK-10 renal
SF-268 CNS = system: SF-268 CNS
CAKI-1 renal = system: CAKI-1 renal
SW-620 colon = system: SW-620 colon
T-47D breast = system: T-47D breast
HL-60(TB) leukemia = system: HL-60(TB) leukemia
A549 NSCLC = system: A549 NSCLC
HCT-116 colon = system: HCT-116 colon
SR leukemia = system: SR leukemia
SNB-75 CNS = system: SNB-75 CNS
HT29 colon = system: HT29 colon
U251 CNS = system: U251 CNS
A498 renal = system: A498 renal
EKVX NSCLC = system: EKVX NSCLC
MALME-3M melanoma = system: MALME-3M melanoma
UO-31 renal = system: UO-31 renal
OVCAR-3 ovarian = system: OVCAR-3 ovarian
HCC-2998 colon = system: HCC-2998 colon
SNB-19 CNS = system: SNB-19 CNS
HS 578T breast = system: HS 578T breast
NCI-H460 lung = system: NCI-H460 lung
M14 melanoma = system: M14 melanoma
CCRF-CEM leukemia = system: CCRF-CEM leukemia
BT-549 breast = system: BT-549 breast
NCI/ADR-RES ovarian = system: NCI/ADR-RES ovarian
MDA-N = system: MDA-N
RXF 393 renal = system: RXF 393 renal
MCF7 breast = system: MCF7 breast
SK-MEL-28 melanoma = system: SK-MEL-28 melanoma
SF-539 CNS = system: SF-539 CNS
SN12C renal = system: SN12C renal
OVCAR-4 ovarian = system: OVCAR-4 ovarian
UACC-62 melanoma = system: UACC-62 melanoma
MOLT-4 leukemia = system: MOLT-4 leukemia
RPMI-8226 leukemia = system: RPMI-8226 leukemia
MDA-MB-435 = system: MDA-MB-435
SK-MEL-2 melanoma = system: SK-MEL-2 melanoma
786-0 renal = system: 786-0 renal
NCI-H226 lung = system: NCI-H226 lung
NCI-H522 lung = system: NCI-H522 lung
SF-295 CNS = system: SF-295 CNS
IGROV1 ovarian = system: IGROV1 ovarian
HOP-62 NSCLC = system: HOP-62 NSCLC
ACHN renal = system: ACHN renal

With `CSc1c(C(=O)Nc2ccccc2)c(N)nn1-c1ccccc1` the TGI (OVCAR-8 ovarian) was > 100 µM, the TGI (COLO 205 colon) was > 100 µM and the TGI (PC-3 prostate) was > 100 µM. For the same compound, the TGI (UACC-257 melanoma) was > 100 µM, the TGI (NCI-H23 lung) was > 100 µM and the TGI (OVCAR-5 ovarian) was > 100 µM. The TGI (K-562 leukemia) was > 100 µM, the TGI (SK-MEL-5 melanoma) was > 100 µM and the TGI (KM12 colon) was > 100 µM. The TGI (DU-145 prostate) was > 100 µM, the TGI (HCT-15 colon) was > 100 µM and the TGI (SK-OV-3 ovarian) was > 100 µM. For the same compound, the TGI (MDA-MB-231 breast) was > 100 µM, the TGI (LOX IMVI melanoma) was > 100 µM and the TGI (TK-10 renal) was > 100 µM. The TGI (SF-268 CNS) was > 100 µM, the TGI (CAKI-1 renal) was > 100 µM and the TGI (SW-620 colon) was > 100 µM. The TGI (T-47D breast) was > 100 µM, the TGI (HL-60(TB) leukemia) was > 100 µM and the TGI (A549 NSCLC) was > 100 µM. The TGI (HCT-116 colon) was > 100 µM, the TGI (SR leukemia) was > 100 µM and the TGI (SNB-75 CNS) was > 100 µM. The TGI (HT29 colon) was > 100 µM, the TGI (U251 CNS) was > 100 µM and the TGI (A498 renal) was > 100 µM. The TGI (EKVX NSCLC) was > 100 µM, the TGI (MALME-3M melanoma) was > 100 µM and the TGI (UO-31 renal) was > 100 µM. The TGI (OVCAR-3 ovarian) was > 100 µM, the TGI (HCC-2998 colon) was > 100 µM and the TGI (SNB-19 CNS) was > 100 µM. For the same compound, the TGI (HS 578T breast) was > 100 µM, the TGI (NCI-H460 lung) was > 100 µM and the TGI (M14 melanoma) was > 100 µM. For the same compound, the TGI (CCRF-CEM leukemia) was > 100 µM, the TGI (BT-549 breast) was > 100 µM and the TGI (NCI/ADR-RES ovarian) was > 100 µM. For the same compound, the TGI (MDA-N) was > 100 µM, the TGI (RXF 393 renal) was > 100 µM and the TGI (MCF7 breast) was > 100 µM. For the same compound, the TGI (SK-MEL-28 melanoma) was > 100 µM, the TGI (SF-539 CNS) was > 100 µM and the TGI (SN12C renal) was > 100 µM. For the same compound, the TGI (OVCAR-4 ovarian) was > 100 µM, the TGI (UACC-62 melanoma) was > 100 µM and the TGI (MOLT-4 leukemia) was > 100 µM. For the same compound, the TGI (RPMI-8226 leukemia) was > 100 µM, the TGI (MDA-MB-435) was > 100 µM and the TGI (SK-MEL-2 melanoma) was > 100 µM. The TGI (786-0 renal) was > 100 µM and the TGI (NCI-H226 lung) was > 100 µM.

For `Nc1nc(SCc2ccccn2)c2ncn(C3CCCC3)c2n1`, the TGI (OVCAR-8 ovarian) was > 100 µM, the TGI (COLO 205 colon) was > 100 µM and the TGI (PC-3 prostate) was > 100 µM. The TGI (UACC-257 melanoma) was > 100 µM, the TGI (NCI-H23 lung) was > 100 µM and the TGI (OVCAR-5 ovarian) was > 100 µM. For the same compound, the TGI (K-562 leukemia) was > 100 µM, the TGI (SK-MEL-5 melanoma) was > 100 µM and the TGI (KM12 colon) was > 100 µM. The TGI (DU-145 prostate) was > 100 µM, the TGI (HCT-15 colon) was > 100 µM and the TGI (SK-OV-3 ovarian) was > 100 µM. For the same compound, the TGI (MDA-MB-231 breast) was > 100 µM, the TGI (LOX IMVI melanoma) was > 100 µM and the TGI (TK-10 renal) was > 100 µM. For the same compound, the TGI (SF-268 CNS) was > 100 µM, the TGI (CAKI-1 renal) was > 100 µM and the TGI (SW-620 colon) was > 100 µM. The TGI (T-47D breast) was > 100 µM, the TGI (HL-60(TB) leukemia) was > 100 µM and the TGI (A549 NSCLC) was > 100 µM. For the same compound, the TGI (NCI-H522 lung) was > 100 µM, the TGI (HCT-116 colon) was > 100 µM and the TGI (SR leukemia) was > 100 µM. The TGI (SF-295 CNS) was > 100 µM, the TGI (SNB-75 CNS) was > 100 µM and the TGI (HT29 colon) was > 100 µM. The TGI (U251 CNS) was > 100 µM, the TGI (A498 renal) was > 100 µM and the TGI (EKVX NSCLC) was > 100 µM. The TGI (MALME-3M melanoma) was > 100 µM, the TGI (UO-31 renal) was 32.7 µM and the TGI (OVCAR-3 ovarian) was > 100 µM. The TGI (HCC-2998 colon) was > 100 µM, the TGI (SNB-19 CNS) was > 100 µM and the TGI (HS 578T breast) was 88.5 µM. The TGI (NCI-H460 lung) was > 100 µM, the TGI (M14 melanoma) was > 100 µM and the TGI (CCRF-CEM leukemia) was > 100 µM. The TGI (BT-549 breast) was > 100 µM, the TGI (NCI/ADR-RES ovarian) was > 100 µM and the TGI (MDA-N) was > 100 µM. The TGI (RXF 393 renal) was > 100 µM, the TGI (MCF7 breast) was > 100 µM and the TGI (SK-MEL-28 melanoma) was > 100 µM. For the same compound, the TGI (IGROV1 ovarian) was > 100 µM, the TGI (SN12C renal) was > 100 µM and the TGI (OVCAR-4 ovarian) was > 100 µM. The TGI (UACC-62 melanoma) was > 100 µM, the TGI (HOP-62 NSCLC) was > 100 µM and the TGI (RPMI-8226 leukemia) was > 100 µM. The TGI (MDA-MB-435) was > 100 µM, the TGI (SK-MEL-2 melanoma) was > 100 µM and the TGI (786-0 renal) was > 100 µM. For the same compound, the TGI (NCI-H226 lung) was > 100 µM and the TGI (ACHN renal) was > 100 µM.
